Among the test systems are OVCAR-8 ovarian; MOLT-4 leukemia; SK-OV-3 ovarian; MCF7 breast; U251 CNS; CCRF-CEM leukemia; RPMI-8226 leukemia; SF-539 CNS; MDA-MB-231 breast; DU-145 prostate.
Common to all, as to assay: inhibition of tumour cell growth, NCI panel, 48 h

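These data come from cells grown in 96-well plates and exposed to compound for 48 hours at five concentrations. At the GI50, growth is halved. TGI: total growth inhibition.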 Some results are limits rather than exact numbers.

In the case of `COc1cc(OC2OC(CO)C(O)C(O)C2O)c2c(c1)O[C@@H]1[C@H](O)Oc3cc(OC)c(OC)cc3[C@]1(O)C2=O` (stereo partly specified), the TGI in the experiment with OVCAR-8 ovarian, with MOLT-4 leukemia, in the experiment with SK-OV-3 ovarian, in the experiment on MCF7 breast, with U251 CNS and in the experiment on CCRF-CEM leukemia was > 25 µM throughout. Besides, the TGI in the experiment with RPMI-8226 leukemia, in the experiment with SF-539 CNS, with MDA-MB-231 breast and in the experiment with DU-145 prostate was > 25 µM each time.

Consider `Nc1nc(Cl)c(C=O)c(NCC2(CO)CCC2)n1`, for which the TGI in the experiment with OVCAR-8 ovarian is 33.8 µM; in the experiment on MOLT-4 leukemia it was 65.5 µM; in the experiment with SK-OV-3 ovarian, 69.5 µM; in the experiment with MCF7 breast, > 100 µM; with U251 CNS it was 31.9 µM; in the experiment on CCRF-CEM leukemia, 34.1 µM. Moreover, the TGI was > 100 µM in the experiment on RPMI-8226 leukemia, > 100 µM with SF-539 CNS, 81.5 µM with MDA-MB-231 breast and > 100 µM with DU-145 prostate.

For `COc1ccc2c(c1)OC1c3ccccc3OCC21` (stereo unspecified), the TGI was > 100 µM in the experiment with OVCAR-8 ovarian; 81.9 µM in the experiment on MOLT-4 leukemia; > 100 µM in the experiment with SK-OV-3 ovarian; > 100 µM with MCF7 breast; > 100 µM with U251 CNS; > 100 µM with CCRF-CEM leukemia. The TGI in the experiment on RPMI-8226 leukemia, in the experiment on SF-539 CNS, in the experiment on MDA-MB-231 breast and with DU-145 prostate was > 100 µM each time.

As to `FC(F)(F)C1(c2ccccc2)SCc2nc3ccccc3n21` (stereo unspecified), the TGI in the experiment with OVCAR-8 ovarian, in the experiment on MOLT-4 leukemia, with SK-OV-3 ovarian, in the experiment with MCF7 breast, in the experiment on U251 CNS and with CCRF-CEM leukemia was > 100 µM in each case. Besides, the TGI with RPMI-8226 leukemia, in the experiment with SF-539 CNS, in the experiment with MDA-MB-231 breast and with DU-145 prostate was > 100 µM throughout.

For `O=C1NC(N2CCCCC2)=N/C1=C\c1ccccc1`, the TGI in the experiment with OVCAR-8 ovarian, in the experiment with MOLT-4 leukemia, with SK-OV-3 ovarian, in the experiment on MCF7 breast, with U251 CNS and in the experiment on CCRF-CEM leukemia was > 100 µM in each case. Moreover, the TGI with RPMI-8226 leukemia, in the experiment with SF-539 CNS, in the experiment on MDA-MB-231 breast and in the experiment on DU-145 prostate was > 100 µM in each case.

For `COc1ccc(Br)c(C=Nc2cccc3cc(OC)c(OC)cc23)c1`, the TGI in the experiment on OVCAR-8 ovarian was > 59.9 µM; in the experiment with MOLT-4 leukemia it was > 62.4 µM; in the experiment with SK-OV-3 ovarian, > 100 µM; in the experiment on MCF7 breast, > 100 µM; in the experiment on U251 CNS, 12.1 µM; with CCRF-CEM leukemia it was > 40.5 µM. The TGI is > 46.3 µM in the experiment with RPMI-8226 leukemia, 12.4 µM with SF-539 CNS, > 46.4 µM with MDA-MB-231 breast and > 100 µM with DU-145 prostate.

With `COC(=O)/C=C/c1cnc2c(c1)oc(=O)n2C`, the TGI in the experiment on OVCAR-8 ovarian, with MOLT-4 leukemia, in the experiment on SK-OV-3 ovarian, in the experiment with MCF7 breast, in the experiment with U251 CNS and with CCRF-CEM leukemia was > 100 µM in each case. The TGI in the experiment on RPMI-8226 leukemia, in the experiment on SF-539 CNS, with MDA-MB-231 breast and with DU-145 prostate was > 100 µM throughout.

Turning to `COc1ccc2c(c1)C(=O)[C@@](Nc1ccc(C=O)cc1)(OC)[C@@](OC)(c1ccc([N+](=O)[O-])cc1)O2`, the TGI in the experiment with OVCAR-8 ovarian, in the experiment with MOLT-4 leukemia, in the experiment on SK-OV-3 ovarian, with MCF7 breast, in the experiment on U251 CNS and in the experiment with CCRF-CEM leukemia was > 10 µM in each case. The TGI in the experiment with RPMI-8226 leukemia, in the experiment with SF-539 CNS, in the experiment on MDA-MB-231 breast and in the experiment with DU-145 prostate was > 10 µM in each case.

For `N[C@@H](Cc1ccc2oc3cc(=O)c4ccccc4c-3nc2c1)C(=O)O`, the TGI is > 100 µM in the experiment on OVCAR-8 ovarian; > 100 µM in the experiment with MOLT-4 leukemia; > 100 µM in the experiment with SK-OV-3 ovarian; 6.79 µM in the experiment on MCF7 breast; > 100 µM in the experiment with U251 CNS; > 100 µM with CCRF-CEM leukemia. Also, the TGI with RPMI-8226 leukemia was > 100 µM; with SF-539 CNS, > 100 µM; in the experiment on MDA-MB-231 breast it was > 100 µM; in the experiment with DU-145 prostate it was 34.7 µM.

Turning to `ClCCc1ccccc1CC1=NCCc2ccccc21`, the TGI with OVCAR-8 ovarian, in the experiment on MOLT-4 leukemia, in the experiment with SK-OV-3 ovarian, in the experiment with MCF7 breast, in the experiment with U251 CNS and in the experiment on CCRF-CEM leukemia was > 100 µM throughout. Besides, the TGI in the experiment with RPMI-8226 leukemia is 45.9 µM; with SF-539 CNS, > 100 µM; in the experiment with MDA-MB-231 breast it was 96.2 µM; with DU-145 prostate it was > 100 µM.

For the compound `COc1c2occc2cc2ccc(=O)oc12`, the GI50 with OVCAR-8 ovarian is > 100 µM. In addition, the TGI in the experiment on OVCAR-8 ovarian, in the experiment on MOLT-4 leukemia, with SK-OV-3 ovarian, with MCF7 breast, in the experiment on U251 CNS and in the experiment with CCRF-CEM leukemia was > 100 µM in each case. Also, the TGI in the experiment with RPMI-8226 leukemia, with SF-539 CNS, in the experiment on MDA-MB-231 breast and in the experiment on DU-145 prostate was > 100 µM each time.

As to `COC(=O)[C@]1(Cc2ccc3ccccc3c2)CCCCCCN1C(=O)c1ccccc1`, the TGI with OVCAR-8 ovarian is > 48.5 µM; in the experiment with MOLT-4 leukemia it was > 47.7 µM; in the experiment on SK-OV-3 ovarian, > 89.8 µM; with MCF7 breast it was > 49.1 µM; in the experiment with U251 CNS it was > 46.1 µM; in the experiment with CCRF-CEM leukemia, > 53.7 µM. The TGI is 17.9 µM with RPMI-8226 leukemia, > 54.1 µM in the experiment with SF-539 CNS, > 53.5 µM with MDA-MB-231 breast and > 68.1 µM in the experiment on DU-145 prostate.

Consider `Cc1cc(=O)n2nc(CSc3n[nH]c(=S)s3)sc2n1`, for which the TGI in the experiment on OVCAR-8 ovarian, with MOLT-4 leukemia, in the experiment with SK-OV-3 ovarian, with MCF7 breast, in the experiment with U251 CNS and in the experiment on CCRF-CEM leukemia was > 100 µM each time. Further, the TGI with RPMI-8226 leukemia, with SF-539 CNS, with MDA-MB-231 breast and with DU-145 prostate was > 100 µM in each case.

With `Nc1ncnc2c1cnn2COCC(O)CO` (stereo unspecified), the TGI in the experiment on OVCAR-8 ovarian, in the experiment on MOLT-4 leukemia, in the experiment on SK-OV-3 ovarian, in the experiment on MCF7 breast, in the experiment on U251 CNS and with CCRF-CEM leukemia was > 100 µM each time. The TGI with RPMI-8226 leukemia, in the experiment with SF-539 CNS, with MDA-MB-231 breast and in the experiment with DU-145 prostate was > 100 µM throughout.

Source of the values: PubChem BioAssay (NCI).
